In assay [1] the target is T1, E. coli Tat machinery (IMVs containing overproduced TatABC) (Escherichia coli, UniProt P69423+P69425+P69428). Kind of assay: In vitro Tat transport assay of pre-SufI into IMVs, NADH as energy source. The class given is biochemical. To be noted: hit compound 20 μM; NADH 4 mM; 37°C 30 min. As for the experimental part:
(§1) To directly test for inhibition of Tat transport, a gel-based in vitro Tat transport assay was performed using pre-SufI, an authentic Tat precursor protein [7]. In short, this assay consists of incubating a Tat substrate and a Δψ-generating energy source with inverted membrane vesicles (IMVs) containing overproduced TatABC, digesting remaining external protein with a protease, and then analyzing via SDS-PAGE. This assay was run twice using NADH and ATP (if warranted) as energy sources to generate the necessary Δψ. NADH generates a Δψ using respiratory proteins (i.e., the NADH dehydrogenase and cytochrome bo3 ubiquinol oxidase complexes) and ATP generates a Δψ by reversal of ATP synthase. A true Tat inhibitor would survive both assays. In contrast, a respiration inhibitor is expected to reduce Tat transport when only one of the two energy sources is used (except for an ionophore).
Fig 8 Effect of Hits from the Local HTS on In Vitro Tat Transport. (A) Tat transport assays of pre-SufI using NADH to generate a Δψ. Inverted membrane vesicles (IMVs; A280 = 5.0), the fluorescent substrate pre-SufI-IAC^Atto565 (90 nM), and NADH (4 mM) were incubated at 37°C for 30 min with DMSO (control) or with hit compound (20 μM). Samples were treated with the protease proteinase K, run on SDS-PAGE, and analyzed by in-gel fluorescence imaging. Assays were run in duplicate. Band intensity corresponds to the amount of protein transported into the IMV lumen. The following 7 compounds survived this screen: 1^JS, 51^JS, 55^JS, 111^JS, 181^JS, 202^JS, and 140^JS (boxed in red). (B) Tat transport assays of pre-SufI using ATP to generate a Δψ. All 7 compounds surviving the screen in (A) were tested using a Tat transport assay performed identically to those in (A) except that ATP (1 mM) was used in place of NADH. Compound 55^JS was eliminated by this assay—the other 6 compounds survived (boxed in red). (C) Chemical structure of compound 55^JS, N-(4,7-Dioxo-4,7-dihydro-2,1,3-benzoxadiazol-5-yl)acetamide.
Isolation of inverted membrane vesicles (IMVs), Western blot analyses and purification of pre-SufI-IAC were performed as described previously. Western blots were performed using rabbit anti-mCherry antibodies (1:10,000 dilution) in the presence of 0.1% Triton X-100 and 0.1% Tween 20. The pre-SufI-IAC protein was labeled with Atto565 maleimide, and the resultant fluorescent protein, pre-SufI-IAC^Atto565, was used as a substrate for the in vitro Tat transport assays (A280 = 5.0), as described previously. The presence of a Δψ was determined by measuring oxonol VI fluorescence in presence of Tat^+ IMVs (A280 = 0.5), as described previously, except that the translocation buffer lacked BSA. Steady-state fluorescence spectra and fluorescence intensities of whole cells producing mCherry proteins were determined with an SLM-8100 spectrofluorometer.
Supplementary file pone.0149659.s003.tiff: S3 Fig IC50's for Hit Compound 181^JS. (A) The total cellular mCherry fluorescence (live cell assay; n = 1), (B) the in vitro NADH-dependent Tat transport efficiency of pre-SufI (n = 1), and (C) the maximum transmembrane electrical potential gradient (n = 1) were measured for a range of concentrations of compound 181^JS (S2E Fig). (D) SDS-PAGE gel showing in-gel fluorescence data used in (B). For (A), cells expressing spTorA-mCherry-SsrA were grown under Tat^++ conditions in a 384-well plate in the presence of 0, 0.08, 0.15, 0.3, 0.63, 1.25, 2.5, 5, 10, 20, or 40 μM compound 181^JS, as described for the HTS assay (see Methods). For (B) and (C), IMVs were incubated with the same concentrations of compound 181^JS prior to initiation of Tat transport and Δψ generation by the addition of NADH, as described previously. The red curves are best-fits using y = d + (100-d)/(1+(x/IC50)^b), where b is a slope factor and d is the high concentration asymptote. (TIFF) Click here for additional data file.

Assay [2] has as its target T1, E. coli Tat machinery (IMVs containing overproduced TatABC). Kind of assay: In vitro Tat transport assay of pre-SufI into IMVs, ATP as energy source. To be noted: hit compound 20 μM; ATP 1 mM. The class given is biochemical. Here is the method: as §1
Fig 8 Effect of Hits from the Local HTS on In Vitro Tat Transport. (A) Tat transport assays of pre-SufI using NADH to generate a Δψ. […] Samples were treated with the protease proteinase K, run on SDS-PAGE, and analyzed by in-gel fluorescence imaging. Assays were run in duplicate. Band intensity corresponds to the amount of protein transported into the IMV lumen. The following 7 compounds survived this screen: 1^JS, 51^JS, 55^JS, 111^JS, 181^JS, 202^JS, and 140^JS (boxed in red). (B) Tat transport assays of pre-SufI using ATP to generate a Δψ. All 7 compounds surviving the screen in (A) were tested using a Tat transport assay performed identically to those in (A) except that ATP (1 mM) was used in place of NADH. […]
Isolation of inverted membrane vesicles (IMVs), Western blot analyses and purification of pre-SufI-IAC were performed as described previously. […] The presence of a Δψ was determined by measuring oxonol VI fluorescence in presence of Tat^+ IMVs (A280 = 0.5), as described previously, except that the translocation buffer lacked BSA. Steady-state fluorescence spectra and fluorescence intensities of whole cells producing mCherry proteins were determined with an SLM-8100 spectrofluorometer.

The record followed here is publication PMC4764201, “High Throughput Screen for Escherichia coli Twin Arginine Translocation (Tat) Inhibitors” (PLoS ONE, 2016).

T1 sequence (P69423 2-258): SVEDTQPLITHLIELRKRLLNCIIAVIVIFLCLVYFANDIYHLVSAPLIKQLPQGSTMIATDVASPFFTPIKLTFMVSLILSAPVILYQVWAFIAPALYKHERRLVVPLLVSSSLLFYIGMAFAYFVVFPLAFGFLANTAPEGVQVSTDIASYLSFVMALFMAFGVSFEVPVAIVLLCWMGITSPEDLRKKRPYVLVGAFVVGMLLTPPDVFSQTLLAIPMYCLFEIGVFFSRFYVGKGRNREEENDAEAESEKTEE
T1 sequence (P69425 whole entry): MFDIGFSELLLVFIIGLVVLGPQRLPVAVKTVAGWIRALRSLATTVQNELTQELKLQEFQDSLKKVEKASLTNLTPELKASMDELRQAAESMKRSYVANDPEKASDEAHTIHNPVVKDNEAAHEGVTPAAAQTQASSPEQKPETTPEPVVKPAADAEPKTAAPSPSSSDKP
T1 sequence (P69428 whole entry): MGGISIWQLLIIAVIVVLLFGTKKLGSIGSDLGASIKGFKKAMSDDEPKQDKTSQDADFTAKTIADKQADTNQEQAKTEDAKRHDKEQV

For `CC(=O)NC1=CC(=O)c2nonc2C1=O` [Compound 55^JS, N-(4,7-dioxo-2,1,3-benzoxadiazol-5-yl)acetamide], the “outcome of NADH-dependent in vitro Tat transport screen (survival = visible inhibition of Tat transport)” value in assay [1] is reported as “survived”. Moreover, the “outcome of ATP-dependent in vitro Tat transport screen (survival = visible inhibition of Tat transport)” value in assay [2] is recorded as “eliminated”.
